# Data: patent publication US20240148723A1, “MYCOBACTERIUM TUBERCULOSIS COMPOSITIONS AND METHODS” (priority 2021, published 2024)
# Several values for one entry are separate records, joined by “and”; a condition that tells them apart may be missing. Equal entries are not always repeated.
# Experiments:
# [1] = system: ORA76 PZA-resistant strain with mutation in panD gene; type: cell-based, Mycobacterium tuberculosis
# [2] = system: M. tuberculosis PZA-resistant strains #6, #78, #98, #106, #186; type: cell-based; conditions: PZA-S1-Plus agar, pH 6.8, 400, 800 and 1600 μg PZA
# [3] = system: five PZA resistant M. tuberculosis strains; test: microbe, parasite or virus in culture; type: cell-based; conditions: Mycobacterium tuberculosis, 504 h, pH 6.8, read-out: MIC for PZA
# [4] = system: PZA-resistant strain (PZA^R) (#6 PncA mutation L159P); type: cell-based, Mycobacterium tuberculosis; conditions: pH 6.8
# [5] = system: Z6 PZA-resistant strain with mutation in pncA gene; type: cell-based, Mycobacterium tuberculosis
# [6] = system: ORA136 PZA-resistant strain with mutation in panD gene; type: cell-based, Mycobacterium tuberculosis
# [7] = system: Z186 PZA-resistant strain with mutation in pncA gene; type: cell-based, Mycobacterium tuberculosis
# [8] = system: ORA48 PZA-resistant strain with mutation in panD gene; type: cell-based, Mycobacterium tuberculosis
# [9] = system: Z98 PZA-resistant strain with mutation in pncA gene; type: cell-based, Mycobacterium tuberculosis
structure (smiles),measurement,setting,value
"NC(=O)c1cnccn1 [PZA, Pyrazinamide]",MIC of PZA,[1],greater than 300 μg/ml
same,Percentage of CFU to Z 0,[1],2.26% and 1.83% and 2.33% and 2.31%
same,"growth inhibition, paper disk",[2],no inhibition
same,MIC,[3],> 800 µg/mL
same,PZA concentration at which the resistant strain grew,[4],800 µg/mL
same,MIC of PZA,[5],greater than 300 μg/ml
same,Percentage of CFU to Z 0,[5],9.33% and 10.00% and 8.65% and 12.47%
same,MIC of PZA,[6],greater than 300 μg/ml
same,Percentage of CFU to Z 0,[6],3.70% and 4.19% and 3.37% and 2.56%
same,MIC of PZA,[7],greater than 300 μg/ml
same,Percentage of CFU to Z 0,[7],1.07% and 1.09% and 1.01% and 1.08%
same,MIC of PZA,[8],greater than 300 μg/ml
same,Percentage of CFU to Z 0,[8],3.74% and 3.48% and 3.39% and 3.00%
same,MIC of PZA,[9],greater than 300 μg/ml
same,Percentage of CFU to Z 0,[9],6.76% and 6.62% and 5.15% and 5.81%
